pIC50: −log10 of the molar value.
Experiments:
human MCH-1 receptor [1] = biological target: T1, human MCH-1 receptor (Homo sapiens, UniProt Q99705); assay: Radioligand binding assay ([125I]-MCH competition, whole cells); settings: competition with [125I]-MCH; COS-7 or CHO cells expressing human MCH-1 receptor
T1 construct: expressed in transfected cells; host or cells: transiently transfected COS-7 cells or stably transfected CHO cells (pcDNA3.1)
Protocol: Transfections and Tissue Culture—The cDNA encoding the human MCH-1 receptor was cloned from a human brain cDNA library and cloned into the eukaryotic expression vector pcDNA3.1 (Invitrogen). Assays were performed on transiently transfected COS-7 cells or stably transfected CHO (Chinese Hamster Ovary) cells, expressing the human MCH-1 receptor in pcDNA3.1. Stable MCH-1 receptor transfectants of CHO cells were obtained using 5 μg plasmid cDNA and a standard calcium phosphate transfection method (Johansen et al., 1990; Gether et al., 1992) with subsequent selection in 1 mg/ml G418 (Life Technology). Clones were screened by a MCH receptor radioligand binding assay (as described below). Stably transfected CHO cells were maintained in RPMI 1640 culture medium (Invitrogen), supplemented with 10% fetal calf serum (Invitrogen), 100 U/ml penicillin, 100 μg/ml streptomycin (Life Technology), and 500 μg/ml G418 (Life Technology). COS-7 cells were grown in Dulbecco's modified Eagle's medium (DMEM) 1885 (Invitrogen) supplemented with 10% fetal calf serum, 100 U/ml penicillin, 100 μg/ml streptomycin, and were transiently transfected by a standard calcium phosphate transfection method (Johansen et al., 1990; Gether et al., 1992) two days before assay.
Radioligand Binding Assay—Transiently transfected COS-7 cells or stably transfected CHO cells, expressing human MCH-1 receptor were seeded in multi-well culture plates one day before the assay. The number of cells per well was determined by the apparent expression efficiency of the cell line aiming at 5-10% binding of the added radioligand. Cells were assayed by competition binding for 3 hours at room temperature using […] [^125I]-MCH (Amersham Pharmacia Biotech) plus variable amounts of unlabeled ligand in 0.5 ml of a 25 mM Hepes buffer, pH 7.4, supplemented with 10 mM MgCl2, 5 mM MnCl2, 10 mM NaCl, 0.1% (w/v) bovine serum albumin (BSA), 100 μg/ml bacitracin. The assay was performed in duplicate. Nonspecific binding was determined as the binding in the presence of 1 μM MCH (Bachem). Binding data were analyzed and IC50 values determined by non-linear regression using the Prism software (GraphPad software, San Diego). Values of the dissociation and inhibition constants (Kd and Ki) were estimated from competition binding using the equations Kd=IC50−L and Ki=IC50/(1+L/Kd), respectively, where L is the concentration of radioligand.

human MCH-1 receptor [2] = biological target: T1, human MCH-1 receptor; assay: Phosphatidylinositol assay (IP3); type: cell-based; settings: phosphatidylinositol turnover stimulated by 10 nM MCH; COS-7 or CHO cells expressing human MCH-1 receptor
Protocol: Transfections and Tissue Culture—The cDNA encoding the human MCH-1 receptor was cloned from a human brain cDNA library and cloned into the eukaryotic expression vector pcDNA3.1 (Invitrogen). Assays were performed on transiently transfected COS-7 cells or stably transfected CHO (Chinese Hamster Ovary) cells, expressing the human MCH-1 receptor in pcDNA3.1. […] Clones were screened by a MCH receptor radioligand binding assay (as described below).
Phosphatidylinositol assay—To assay phosphatidylinositol turnover, transiently transfected COS-7 cells or stably transfected CHO cells, expressing human MCH-1 receptor (2×10^5 cells/well) were incubated for 24 h with 5 μCi of [^3H]-myo-inositol (Amersham Pharmacia Biotech) in 0.5 ml inositol-free culture medium. Cells were washed twice in PI-buffer: 20 mM HEPES, pH 7.4, supplemented with 140 mM NaCl, 5 mM KCl, 1 mM MgSO4, 1 mM CaCl2, 10 mM glucose, 0.02% (w/v) bovine serum; and were incubated in 0.5 ml PI-buffer supplemented with 10 mM LiCl at 37° C. for 45 min. Phosphatidylinositol turnover was stimulated by submaximal concentrations of MCH, i.e. 10 nM in the presence of increasing amounts of ligand. The ligand was added 5 min. before adding the agonist (MCH). Cells were extracted with 10 mM ice-cold Formic acid, and the generated [^3H]-inositol phosphates were purified on Bio-Rad AG 1-X8 anion-exchange resin. Determinations were made in duplicate. PI data were analyzed and IC50 values determined by non-linear regression using the Prism software (GraphPad software, San Diego).

hMCHreceptor = biological target: T2, hMCHreceptor (Homo sapiens, UniProt Q99705); assay: Scintillation Proximity Assay (SPA), [125I]-MCH binding to CHO-K1 membranes; settings: CHO-K1 membranes expressing hMCH receptor
T2 construct: purchased Euroscreen ES-370-M; host or cells: CHO-K1 membranes
T2 sequence (Q99705 whole entry): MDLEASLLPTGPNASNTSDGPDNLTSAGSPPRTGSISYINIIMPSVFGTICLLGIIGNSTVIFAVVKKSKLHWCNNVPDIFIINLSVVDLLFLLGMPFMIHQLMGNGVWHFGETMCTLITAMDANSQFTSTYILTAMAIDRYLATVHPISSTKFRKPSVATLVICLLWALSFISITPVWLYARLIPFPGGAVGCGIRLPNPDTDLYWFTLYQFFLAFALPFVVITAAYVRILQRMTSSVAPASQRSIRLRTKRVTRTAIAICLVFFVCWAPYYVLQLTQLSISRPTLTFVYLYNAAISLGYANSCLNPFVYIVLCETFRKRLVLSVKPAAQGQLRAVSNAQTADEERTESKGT
Protocol: Scintillation Proximity Assay (SPA)—Measurement of [^125I]-MCHbinding was performed in duplicates by incubating membranes and beads with tracer in the presences of various concentrations of test compounds (10^−8 to 10^−4 M) in DMSO (3 μl) at room temperature for two hours. Membranes and beads were pre-incubated for 20 min. The binding buffer contained 50 mM Tris (pH 7.4), 8 mM MgCl2, 12% glycerol, 0.1% (w/v) bovine serum albumin (BSA), and protease inhibitors (Complete protease inhibitor cocktail tablets, Roche). A final [^125I]-MCH(2000 Ci/mmol; Amersham Pharmacia Biotech) concentration of 75.000 cpm/well (33.8 nCi) was applied and PEI-treated WGA-coupled PVT SPA beads, type B from Amersham Pharmacia Biotech were used at a final concentration of 0.4 mg/well. Moreover, CHO-K1 membranes expressing the hMCHreceptor were purchased from Euroscreen (ES-370-M) and a final concentration of 2 μg/well were used. Binding data were analyzed and IC50 values determined by non-linear regression using the Prism software (GraphPad software, San Diego). Values of the inhibition constant (Ki) were estimated from competition binding using the equation Ki=IC50/([…]), where L and Kd are the concentration and affinity constant, respectively, of the radioligand.

T1 sequence (Q99705 whole entry): as above

SMILES | pIC50 (human MCH-1 receptor [1]) | pIC50 (human MCH-1 receptor [2]) | pIC50 (hMCHreceptor)
CCCCN(CCCC)CCCNC(=O)c1ccc(N(C)C(=O)Nc2ccc(Oc3ccccc3)cc2)cc1OC [Ex 134, N-(3-Dibutylamino-propyl)-2-methoxy-4-[1-methyl-3-(4-phenoxy-phenyl)-ureido]-benzamide] | 7.16 | 6.17 | –
CCN(CC)CCNC(=O)c1ccc(NC(=O)Nc2ccc(OC(F)(F)F)cc2)cc1 [Ex 47, N-(2-Diethylamino-ethyl)-4-[3-(4-trifluoromethoxy-phenyl)-ureido]-benzamide] | 7.15 | 6.54 | –
CCN(CC)CCNC(=O)c1ccc(N(C)C(=O)Nc2ccc(Oc3ccccc3)cc2)cc1OC [Ex 33, N-(2-Diethylamino-ethyl)-2-methoxy-4-[1-methyl-3-(4-phenoxy-phenyl)-ureido]-benzamide] | 7.32 | 6.54 | –
COc1cc(NC(=O)Nc2ccc(Oc3ccccc3)cc2)ccc1C(=O)NCCCN1CCCCC1 [Ex 95, 2-Methoxy-4-[3-(4-phenoxy-phenyl)-ureido]-N-(3-piperidin-1-yl-propyl)-benzamide] | 7.36 | 6.62 | –
COc1cc(NC(=O)Nc2ccc(C(F)(F)F)cc2)ccc1C(=O)NCCN1CCOCC1 [Ex 67, 2-Methoxy-N-(2-morpholin-4-yl-ethyl)-4-[3-(4-trifluoromethyl-phenyl)-ureido]-benzamide] | – | 6.66 | 7.57
COc1cc(NC(=O)Nc2cccc(Oc3ccccc3)c2)ccc1C(=O)NCCCN1CCOCC1 [Ex 121, 2-Methoxy-N-(3-morpholin-4-yl-propyl)-4-[3-(3-phenoxy-phenyl)-ureido]-benzamide] | 7.13 | – | –
CCN(CC)CCNC(=O)c1ccc(NC(=O)Nc2ccc(OC(F)(F)F)cc2)cc1OC [Ex 48, N-(2-Diethylamino-ethyl)-2-methoxy-4-[3-(4-trifluoromethoxy-phenyl)-ureido]-benzamide] | 7.02 | 6.72 | –
COc1cc(NC(=O)Nc2ccc(Oc3ccccc3)cc2)ccc1C(=O)NCCCN1CCOCC1 [Ex 23, 2-Methoxy-N-(3-morpholin-4-yl-propyl)-4-[3-(4-phenoxy-phenyl)-ureido]-benzamide] | 6.68 | 6.11 | –
COc1cc(NC(=O)Nc2ccc3c(c2)CCC3)ccc1C(=O)NC1CCN(Cc2ccccc2)CC1 [Ex 137, N-(1-Benzyl-piperidin-4-yl)-4-(3-indan-5-yl-ureido)-2-methoxy-benzamide] | 6.52 | – | –
COc1cc(NC(=O)Nc2ccc(Nc3ccc(C(F)(F)F)cc3)cc2)ccc1C(=O)NCCCN1CCOCC1 [Ex 139, 2-Methoxy-N-(3-morpholin-4-yl-propyl)-4-{3-[4-(4-trifluoromethyl-phenylamino)-phenyl]-ureido}-benzamide] | 5.85 | – | –
COc1cc(NC(=O)Nc2ccc(Oc3ccccc3)cc2)ccc1C(=O)NCCN(C)C [Ex 8, N-(2-Dimethylamino-ethyl)-2-methoxy-4-[3-(4-phenoxy-phenyl)-ureido]-benzamide] | 6.42 | 5.64 | –
COc1cc(NC(=O)Nc2ccc(Oc3ccc(F)cc3)cc2)ccc1C(=O)NCCCN1CCOCC1 [Ex 135, 4-{3-[4-(4-Fluoro-phenoxy)-phenyl]-ureido}-2-methoxy-N-(3-morpholin-4-yl-propyl)-benzamide] | 6.35 | 5.80 | –
COc1cc(NC(=O)Nc2cccc(Nc3ccccc3)c2)ccc1C(=O)NCCCN1CCCCC1 [Ex 89, 2-Methoxy-4-[3-(3-phenylamino-phenyl)-ureido]-N-(3-piperidin-1-yl-propyl)-benzamide] | 7.92 | 7.66 | –
COc1cc(NC(=O)Nc2ccc(Oc3ccccn3)cc2)ccc1C(=O)NCCCN1CCOCC1 [Ex 136, 2-Methoxy-N-(3-morpholin-4-yl-propyl)-4-(3-[4-(pyridin-2-yloxy)-phenyl]-ureido)-benzamide] | 5.35 | – | –
COc1cc(NC(=O)Nc2ccc(Oc3ccccc3)cc2)c(F)cc1C(=O)NCCCN1CCCCC1 [Ex 186, 5-Fluoro-2-methoxy-4-[3-(4-phenoxy-phenyl)-ureido]-N-(3-piperidin-1-yl-propyl)-benzamide] | 6.00 | – | –
COc1cc(NC(=O)Nc2ccc(Oc3ccccc3)cc2)ccc1C(=O)NC1CCN(Cc2ccccc2)CC1 [Ex 16, N-(1-Benzyl-piperidin-4-yl)-2-methoxy-4-[3-(4-phenoxy-phenyl)-ureido]-benzamide] | 6.66 | 5.74 | –
COc1cc(NC(=O)c2ccc(-c3ccccc3)cc2)ccc1C(=O)NCCN(C)C [Ex 2, Biphenyl-4-carboxylic acid[4-(2-dimethylamino-ethylcarbamoyl)-3-methoxy-phenyl]-amide] | 5.83 | – | –

— patent publication US20060235035A1, “Novel methoxybenzamibe compounds for use in mch receptor related disorders” (7TM Pharma A/S, priority 2002, published 2006)
